Source: US8349553B2, “Jasmonate based assays for identifying compounds that selectively inhibit mitochondrial bound hexokinases” (Ramot at Tel Aviv University Ltd., priority 2007, dated 2013)

Experiments:
[1] = tested on: mitochondrial fraction of mouse liver; experiment: Mitochondrial swelling assay, mouse liver; format: biochemical; settings: 1 mM
Description: (§1) Freshly isolated mitochondrial fraction was washed with extraction buffer to remove EDTA and resuspended in swelling buffer (Mannitol 220 mM, Sucrose 70 mM, Tris, pH 7.2, 150 mM, KH2PO4, pH 7.2, 0.2 mM; 0.2 mg in 100 μL) freshly supplemented with potassium succinate, pH 7.2, 5 mM. Every component was sodium-free. Optical density was monitored at the wave length of 540 nm for 2-5 minutes before the addition of the examined reagents, e.g. methyl jasmonate, and for additional 20 minutes afterwards.
(§2) In order to examine the consistency of the relationship between the ability of methyl jasmonate to detach bound hexokinase and mitochondrial damage, methyl jasmonate was tested in mouse brain in comparison to mouse liver. The comparison was performed due to known differences of mitochondrial hexokinase content between mouse brain vs. its liver. It is well established in the art that brain mitochondrial fraction is rich in bound hexokinase, while liver mitochondrial fraction is essentially devoid of it (Wilson, 1995). […] Mitochondrial fractions were incubated for either 10, 30 or 60 minutes at 37° C. The activity of unbound hexokinase was measured and compared to the activity of spontaneously (control) detached hexokinase. Consequently, the ability of methyl jasmonate to induce swelling in mitochondrial fraction isolated from mouse brain and liver was tested.

[2] = tested on: CT26 cells transfected with pcDNA3-HKII or pcDNA3
Description: Cell death was determined by trypan blue exclusion. […] Alternatively, cytotoxicity was determined using hemacolor staining. Upon completion of a given experiment, cells were stained and the percentage of dead (detached) cells was determined spectrophotometrically.
CT26 cells were transfected with pcDNA3-HKII or pcDNA3, using FuGene HD transfection reagent (Roche, Basel, Switzerland), according to the manufacturer's instruction followed by selection using G418.
To examine the effect of hexokinase over-expression on methyl jasmonate action, CT26 cells were transfected with plasmids, pcDNA3-HKII or pcDNA3, encoding for hexokinase II over-expression and a control plasmid, respectively (Zaid, 2005). Cells were seeded in 96-well plates and allowed to adhere. Cells were exposed to methyl jasmonate for 60 minutes prior to ATP determination (FIG. […] 9B).

[3] = tested on: lymphomas; settings: mice; cited from earlier work
[4] = tested on: mitochondria-bound hexokinase (mitochondrial fraction of BCL-1 leukemic cells); experiment: Hexokinase detachment assay, mitochondrial fraction of BCL-1 leukemic cells; format: biochemical, murine; settings: BCL-1 mitochondrial fraction; 30 minutes at 37° C.
Description: Mitochondrial fraction was prepared by mechanical lysis and differential centrifugation. All stages were performed on ice. Cells or extracted tissues were washed with PBS and disrupted by homogenization in extraction buffer (Sucrose 250 mM, HEPES-NaOH 10 mM, pH 7.2) freshly supplemented with 0.1 mM EDTA and Protease Inhibitors cocktail (Sigma). For each gram of cells or tissue, 4 volumes of extraction buffer were applied. The homogenate volume was doubled with the extraction buffer, and tissue and cell debris as well as nuclei were pelleted by centrifugation of 1,000 g for 10 minutes. The supernatant was further spun at 13,000 g for 10 minutes twice. Endoplasmic reticulum layer was removed. The pellet, designated as the mitochondrial fraction, was suspended in the appropriate buffer, depending on the assay for which the mitochondrial fraction was prepared. Mitochondrial fractions were used immediately or stored at −196° C. […] Activity of hexokinase in the supernatant (i.e., activity of the detached hexokinase) was determined spectrophotometrically at 340 nm. […] Mitochondrial fractions isolated from different cancer cells, namely Molt-4 cells, BCL-1 leukemic cells and B16 melanoma tumors were incubated for 30 minutes at 37° C., and the activity of unbound hexokinase was measured and compared to the activity of spontaneously (control) detached hexokinase. […]

[5] = target: T1, mitochondria-bound hexokinase (mitochondrial fraction isolated from mouse brain) (Mus musculus, UniProt P17710); experiment: Hexokinase detachment assay, mitochondrial fraction of mouse brain; format: biochemical
T1 construct: detach hexokinase from mitochondrial fraction isolated from mouse brain; from tissue; host or cells: mouse brain (mitochondrial fraction)
Description: To determine the amount of hexokinase detached from the mitochondrial fraction by different agents, mitochondria were incubated with the agent of interest and pelleted by centrifugation. Activity of hexokinase in the supernatant (i.e., activity of the detached hexokinase) was determined spectrophotometrically at 340 nm. The reaction couples the ADP formation by hexokinase, consuming the ADP for pyruvate formation by pyruvate kinase, and reducing the pyruvate with NADH by lactate dehydrogenase. Briefly, mitochondria were suspended in incubation buffer (HEPES pH 7.4 20 mM, Sucrose 0.25M, Glucose 10 mM, KCl5 mM, MgCl2 10 mM; 0.2 mg/test, 100 μL/test) and incubated as described below. Mitochondria-bound hexokinase was precipitated by centrifugation at 20,000 g for 10 minutes at 4° C. The activity of hexokinase in the supernatant fraction was assayed in reaction buffer (250 μL; HEPES pH 7.2 20 mM, MgCl2 5 mM, KCl 5 mM, glucose 10 mM) freshly supplemented with pyruvate kinase (1 U/ml), lactate dehydrogenase (1 U/ml), ATP (1 mM), phospho(enol)pyruvate (1 mM), NADH (0.18 mg/ml). […] Mitochondrial fractions were incubated for either 10, 30 or 60 minutes at 37° C. The activity of unbound hexokinase was measured and compared to the activity of spontaneously (control) detached hexokinase.

[6] = tested on: hexokinase; experiment: Hexokinase activity, agent added directly to the coupled assay mixture; format: biochemical; settings: coupled pyruvate kinase/lactate dehydrogenase assay, 340 nm
[7] = tested on: mitochondrial fraction of mouse brain; experiment: Mitochondrial swelling assay, mouse brain; format: biochemical; settings: 1 mM
Description: as §1, §2

[8] = tested on: HKI and HKII (mitochondrial fraction of Molt-4 cells); experiment: Western blot of supernatants with anti-HKI and anti-HKII, Molt-4 mitochondrial fraction; format: biochemical, human; settings: Molt-4 mitochondrial fraction supernatant
Description: For analysis of hexokinase levels, the experiments were performed similarly to hexokinase detachment assay described above, and unbound hexokinase in the supernatant fraction was extracted as described in Fingrut (2005). Samples were separated by sodium dodecylsulfate-polyacrylamide gel (7%) electrophoresis followed by immunoblotting. The blots were probed with specific anti-HKI or anti-HKII antibodies (1:300, Santa-Cruz Biotechnology, CA, USA). Hexokinase-antibody complexes were stained with HRP-conjugated antibody (1:10,000, Santa-Cruz Biotechnology, CA, USA). Enhanced chemiluminescence (ECL) reagent (Biological Industries, Beit Haemek, Israel) was added, and the blots were exposed to ECL film (Eastman Kodak, Rochester, N.Y., USA). Hexokinase detachment from mitochondrial fraction is not limited to CT-26 colon carcinoma. Mitochondrial fractions isolated from different cancer cells, namely Molt-4 cells, BCL-1 leukemic cells and B16 melanoma tumors were incubated for 30 minutes at 37° C., and the activity of unbound hexokinase was measured and compared to the activity of spontaneously (control) detached hexokinase. […] The supernatant of the experiments were separated on SDS-PAGE and probed with anti-HKI and anti-HKII antibodies.

T1 sequence (P17710 1-918 isoform P17710-3): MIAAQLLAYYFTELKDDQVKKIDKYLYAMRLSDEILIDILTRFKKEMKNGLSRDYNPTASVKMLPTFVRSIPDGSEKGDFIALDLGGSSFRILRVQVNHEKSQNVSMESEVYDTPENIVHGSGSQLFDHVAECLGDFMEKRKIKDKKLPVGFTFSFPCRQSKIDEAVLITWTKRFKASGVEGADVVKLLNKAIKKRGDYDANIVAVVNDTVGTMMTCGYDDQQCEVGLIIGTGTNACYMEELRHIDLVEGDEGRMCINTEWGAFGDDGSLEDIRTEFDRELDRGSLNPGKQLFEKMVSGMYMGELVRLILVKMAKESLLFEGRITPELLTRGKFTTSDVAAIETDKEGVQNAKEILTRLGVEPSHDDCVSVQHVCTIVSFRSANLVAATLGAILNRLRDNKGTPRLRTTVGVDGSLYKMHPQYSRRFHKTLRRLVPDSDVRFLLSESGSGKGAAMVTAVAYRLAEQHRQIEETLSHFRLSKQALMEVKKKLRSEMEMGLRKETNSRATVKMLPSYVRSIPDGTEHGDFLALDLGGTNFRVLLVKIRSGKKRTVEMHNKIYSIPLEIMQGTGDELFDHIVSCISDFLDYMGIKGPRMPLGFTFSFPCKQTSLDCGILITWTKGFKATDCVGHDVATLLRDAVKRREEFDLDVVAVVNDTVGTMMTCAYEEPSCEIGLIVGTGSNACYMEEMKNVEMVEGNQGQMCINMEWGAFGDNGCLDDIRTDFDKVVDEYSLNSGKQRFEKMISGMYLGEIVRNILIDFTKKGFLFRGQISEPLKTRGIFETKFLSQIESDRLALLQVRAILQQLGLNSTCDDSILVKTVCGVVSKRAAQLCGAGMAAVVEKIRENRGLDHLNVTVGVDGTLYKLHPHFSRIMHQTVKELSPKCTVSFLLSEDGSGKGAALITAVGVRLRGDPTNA

detachment of hexokinase, time dependence ([5]; 3 mM, 10, 30 or 60 minutes at 37° C.): time-dependent
detachment of hexokinase, dose dependence ([5]; 30 minutes of incubation): dose dependent
Compound: CC/C=C\CC1C(=O)CCC1CC(=O)OC (stereo not drawn) [methyl jasmonate]
mitochondrial swelling (optical density at 540 nm) [1]: not in liver
cytotoxicity (hemacolor), hexokinase II over-expressing vs. control cells [2]: decreased in cells with higher expression of hexokinase II
prevention of the development of lymphomas [3]: effective in preventing the development of lymphomas in mice
detachment of hexokinase (activity of unbound hexokinase compared to control) [4]: detached hexokinase from mitochondrial fraction isolated from the three different cancer cells
influence on hexokinase activity when added directly to the assay mixture [6]: neither methyl jasmonate nor jasmonic acid added directly to the assay mixture, influence hexokinase activity
mitochondrial swelling (optical density at 540 nm) [7]: led to swelling in brain
detachment of hexokinase confirmed by immunoblot (anti-HKI, anti-HKII) [8]: detachment of hexokinase from mitochondrial fraction of the various cancer cells was further confirmed
